Laboratory results published in patent US20170312300A1, “Methods for Treating Cancer” (Fundacion Centro National de Investigaciones Oncolgicas …, priority 2014, published 2017).

Assays:
[1] = target: T1, kynurenine 3-monooxygenase (KMO) (Mus musculus, UniProt Q91WN4); experiment: Ro-61-8048 treatment of C57BL/6 mice previously fed DDC diet (liver NAD+ and DNA damage); type: in vivo; conditions: 25 mg/Kg intraperitoneally for 3 consecutive days after 4 days DDC diet, vs DMSO
T1 construct: supplying C57BL/6 mice for 4 days with a DDC-supplemented diet; from tissue; host or cells: liver of living C57BL/6 mice (in vivo dosing)
T1 sequence (Q91WN4 whole entry): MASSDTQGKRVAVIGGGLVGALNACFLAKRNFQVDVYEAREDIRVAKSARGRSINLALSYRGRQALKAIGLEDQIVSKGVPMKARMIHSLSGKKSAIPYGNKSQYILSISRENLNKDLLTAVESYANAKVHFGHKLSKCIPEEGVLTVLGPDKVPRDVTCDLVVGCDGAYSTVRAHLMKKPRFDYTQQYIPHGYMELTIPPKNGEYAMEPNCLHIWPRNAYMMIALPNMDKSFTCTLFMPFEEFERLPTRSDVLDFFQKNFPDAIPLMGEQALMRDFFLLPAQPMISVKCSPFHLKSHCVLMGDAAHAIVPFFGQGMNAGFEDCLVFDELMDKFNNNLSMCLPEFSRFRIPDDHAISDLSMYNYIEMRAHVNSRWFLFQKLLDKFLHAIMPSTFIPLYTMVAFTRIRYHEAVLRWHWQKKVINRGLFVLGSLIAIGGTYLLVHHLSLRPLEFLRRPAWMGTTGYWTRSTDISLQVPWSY
Experimental: Freshly harvested murine livers were fixed immediately in 10% buffered formalin solution overnight and embedded in paraffin. Sections of 3 μm were deparafinized, rehydrated and antigen retrieved by using 1M sodium citrate buffer (pH 6.5). After blocking endogenous peroxidase using 3% H2O2 (in methanol) for 5 min, sections were then blocked with 1:200 goat serum 5% BSA/PBST for 1 h at RT. Furthermore, sections were incubated with primary antibodies overnight at 4° C., after which Vectastain ABC kit (Vector Laboratories, Inc) was used, following manufacturer's instructions. Sections were then incubated with 33-diaminobenzidinetetracloride (DBA) and counterstained with hematoxylin. In the case of immunofluorescence, sections were incubated with PE-conjugated secondary antibodies (1:500) for 1 h at RT, followed by DAPI staining. Quantification was performed either by counting the number of positive cells in a minimum of six 10× or 20× microscopic fields, or the percentage of positive area using Color Deconvolution plug-in in Image J.
NAD+ levels were determined using a commercial kit (Enzychrom, BioAssays Systems, CA), and as previously described (Canto et al., 2012, Cell Metab 15, 838-847). NAD+/NADH assay kit is based on a […] cycling reaction, in which the formed NADH reduces a formazan (MTT) reagent. […]

advanced HCC = conditions: patients with advanced HCC; cited from earlier work
hepatocarcinogenesis = conditions: cited from earlier work
[2] = system: model of hepatic carcinogenesis; conditions: cited from earlier work

SMILES: COc1ccc(S(=O)(=O)Nc2nc(-c3cccc([N+](=O)[O-])c3)cs2)cc1OC [Ro-61-8048]
- DNA damage foci (γH2AX) in livers [1]: significantly elevated
- NAD+ concentrations in livers [1]: reduced

SMILES: CNC(=O)c1cc(Oc2ccc(NC(=O)Nc3ccc(Cl)c(C(F)(F)F)c3)cc2)ccn1 [sorafenib]
- prolongation of survival compared to placebo (advanced HCC): around 2 months

SMILES: NC(=O)c1cccnc1 [nicotinamide]
- hepatocarcinogenesis (hepatocarcinogenesis; both in vitro and in vivo): effectively inhibits
- formation of loci and adenomas (hepatocarcinogenesis; in vivo): lower formation
- number of foci, their diameter or proportion of liver occupied by loci [2]: no effect
